# Data: US9345793B2, “Compounds for binding to the platelet specific glycoprotein IIB/IIIA and their use for imaging of thrombi” (PIRAMAL IMAGING SA, priority 2011, dated 2016)
# Values joined by “and” are separate entries in the source; they are usually repeats but may differ in a detail not shown here. Identical values can stand only once. “Also recorded” adds a separate entry of the source.
# Assays:
# [1] = system: arterial and venous thrombi; test: Thrombus PET imaging and in vivo clot-to-blood ratio in cynomolgus monkeys; design: species or system cynomolgus monkey
# Description: The ability of the compound described in example 40 for the imaging of thrombi was investigated in a PET-study with cynomolgus monkeys (female, 2.8-3.2 kg).
# The first monkey was anesthetized with a mixture of Xylazin (Rompun®, Bayer HealthCare, Leverkusen, Germany), 0.12 mL/Kg and Ketamine (Ketavet®, Pfizer) 0.12 mL/Kg b.w. i.m. and additionally analgesized by an i.m. injection of 6 μg Buprenorphine per kg. While the investigation, small amounts of Ketamine have been injected i.m. if required. The left common carotid artery was exposed surgically and a polyethylene-tube ([…] Polyethylene Tubing, Clay Adams, PE50), which was roughened previously by sandpaper (600—CAMI Grit designation), was inserted into the vessel, advanced into the descending aorta and was left there for 30 minutes to allow for the development of a thrombus on the rough surface of the tube. Meanwhile, the monkey was placed inside the PET-scanner (Inveon PET/CT, Siemens Medical, Erlangen). […] The thickness of this layer was far below 1 mm (see also removed thrombus of Monkey 2, FIG. 7) and therewith also far below the resolution of the image, which is approximately 1 mm. This also means, that even slightest thrombi, even if their size is far less than the resolution of the imaging-device, can be visualized due to the massive accumulation of compound on the platelets of the thrombi. At the end of the experiment the tube was removed carefully from the vessel before it was weighted and measured in a gamma counter (Automatic Gamma Counter Wizard^2 3, Perkin Elmer). Then the thrombus together with the tube was incubated in Plasmin-solution (Plasmin from Human Plasma, Sigma Aldrich, Plasmin-stock-solution: 500 μg Plasmin in 500 μL Tris-buffer (150 μM, pH 7.8), 20 μL Plasmin-stock-solution to 230 μL saline solution 0.9%) for 48 hours to separate the platelets from the tube and to determine the netto weight of the thrombus. Finally the activity of the compound in blood and thrombus as well as the ratio between the two was determined (cpm/weight [mg]).
# The experiment was repeated with the same compound in another monkey with a slightly different preparation of the thrombogenic tube: This tube was roughened at only two short sections with a gap in between. Apart from that, the experimental design including the determination of the in vivo clot-to-blood ratio was as described above for monkey 1.
# The experiment was repeated with the same compound in another monkey, but with the reduced dose of 15 MBq for the whole animal. In addition to the arterial catheter, this animal also received a venous catheter, also made of PE50-catheter-tube and roughened at some parts with gaps in between as described above. […]
# The in vivo clot-to-blood ratio was determined from 5 thrombi out of the above described monkey experiments. As already mentioned above the thrombi had been removed from the vessels after imaging and had been weighted and measured in a gamma-counter (Automatic Gamma Counter Wizard^2 3, Perkin Elmer) together with blood samples taken from the animal. After incubation of the thrombi in Plasmin (Plasmin from Human Plasma, Sigma Aldrich, Plasmin-stock-solution: 500 μg Plasmin in 500 μL Tris-buffer (150 μM, pH 7.8), 20 μL Plasmin-stock-solution to 230 μL saline solution 0.9%) and removal of the thrombi from the catheter tubes, the netto weight of the thrombi was calculated and the concentration of the compound in thrombus (clot) and blood, as well as the ratio between the two was calculated.
# [2] = system: human thrombi; test: Ex vivo blood flow model: binding to human thrombi, incl. competition with cold compound; conditions: ± SEM
# Excerpt: The binding of compounds to thrombi was further investigated in an ex vivo blood flow model similar to that described in “Wakhloo, A. K. et al. Thrombus and stroke 2008, in vitro models 57-66” but modified with regard to thrombus development. Briefly, an open handmade tube-set consisting of tygon-tubes (Tygon R-1000, part N^O AAU00007: I.D. 3.2 mm, O.D. 6.4 mm, Saint Gobain Performance Plastics North America), intermediate tubes (Intrafix® Infusion set, B. Braun, Melsungen, Germany) an open reservoir (10 mL Combitip, Eppendorf) and a chamber made of a piece of polyethylene-Tube, ([…] Polyethylene Tubing, Clay Adams, PE160, length: 6.5 cm) containing a loop of a roughened thread (fishing line: Okuma UltraMax whitefish, diameter: 0.14 mm, length: 5 cm; sandpaper: CAMI Grit designation: 600, CP918a, VSM) was used for thrombus formation. The connection between the intermediate tube and the thrombus chamber was made by trimmed tips (epTIPS, 200 μL, Eppendorff, Hamburg/Germany). The Reservoir and the thrombus chamber were fixed by clamps and stands. A peristaltic-pump (Minipuls 3, Gilson, Middelton/USA) was used to pump the blood around thereby adjusting the flow in the middle of the thrombus chamber to 70-90 cm per second, which was monitored by ultrasound Doppler measurement (Vevo 770 High-Resolution In Vivo Micro-Imaging System, VisualSonics, TorontoOntario, Canada; Scanhead: RMV 704, 40 MHz). The volume of the entire tube-set was 7.5 or 15 mL.
# For each experiment fresh blood was taken from a volunteer using 10 mL citrate-tubes (Sarstedt S-Monovette 02.1067.001, 10 mL, Citrate 3.13%) and immediately laid into the turning-device of an incubator at a temperature of 37° C. (Heraeus miniTherm CTT with integrated rotation- and turning device, turning speed: 19 rotations per minute, Heraeus Instruments GmbH, Hanau/Germany). As needed, two tubes were taken out of the turning-device and 15 mL were transferred to a 20 mL Syringe (Omnifix®, B. Braun, Melsungen/Germany) and gently mixed with 0.75 mL CaCl2-Solution before the peristaltic pump was started and the whole content of the syringe was transferred into the reservoir of the tube-set via a cell strainer (BD Falcon™ cell strain, 40 μm, BD, Franklin Lakes, N.J. USA). After 7 minutes 1 MBq or 0.5 MBq (15 mL or 7.5 mL) of the compound was added to the reservoir by means of a pipette, thereby mixing the content gently with the tip of the pipette. The blood was left circulating for another 3 minutes. Then, the pump was stopped, aliquots were taken from the blood and the thrombus together with the roughened thread was removed from the thrombus-chamber before both was weighted and measured in a gamma counter (Automatic Gamma Counter Wizard^2 3, Perkin Elmer). Then the thrombus together with the thread was incubated in Plasmin-solution (Plasmin from Human Plasma, Sigma Aldrich, stock-solution: 500 μg in 500 μL 150 μM Tris-buffer (pH 7.8), 20 μL stock-solution to 230 μL saline solution 0.9%) for 48 hours to separate the platelets from the thread and to determine the netto weight of the thrombus. Finally the activity of the compound in blood and thrombus as well as the ratio between both was determined (cpm/weight [mg]).
# To verify the specificity of the compound, a competition experiment was conducted in which the cold compound was added to the reservoir together with the hot compound. The final plasma concentration of the cold compound was 2.8 μM.
# [3] = Blood clearance in a cynomolgus monkey (PET and gamma counter); type: in vivo
# Description: Blood kinetics of the compound described in example 40 in cynomolgus monkey. PET-imaging was performed continuously from shortly before up to 60 minutes post injection. Venous blood samples were taken at 3, 10, 30 and 60 minutes p.i. and were measured in a gamma-counter (Automatic Gamma Counter Wizard^2 3, Perkin Elmer) and expressed as cpm/mg blood. Additionally, the blood-concentration of the compound was measured from the PET-Image over the whole imaging period and expressed as % ID/g.
# The blood clearance of the compound described in example 40 has been determined in a cynomolgus monkey. A female cynomolgus monkey was anesthetized with a mixture of Xylazin (Rompun®, Bayer HealthCare, Leverkusen, Germany), 0.12 mL/kg bodyweight and Ketamine (Ketavet®, Pfizer) 0.12 mL/kg bodyweight i.m. The monkey was placed inside the PET-scanner (Inveon PET/CT, Siemens Medical, Erlangen) and 25 MBq of the compound has been injected i.v. while PET-imaging was performed continuously from shortly before up to 60 minutes post injection. Venous blood samples were taken at 3, 10, 30 and 60 minutes p.i. and were measured in a gamma-counter (Automatic Gamma Counter Wizard^2 3, Perkin Elmer). Additionally, the blood-concentration of the compound was measured from the PET-Image over the whole imaging period (FIG. 4).
compound,measurement,setting,value
"O=C(O)C[C@H](NC(=O)[C@@H]1CCCN(C(=O)CCC2CCNCC2)C1)c1cncc(OCC[18F])c1 [Example 40, (3S)-3-[5-(2-[^18F]Fluoroethoxy)pyridin-3-yl]-3-[({(3R)-1-[3-(piperidin-4-yl)propanoyl]piperidin-3-yl}carbonyl)amino]propanoic acid]",retention within the thrombus,[1]; 60 minutes were shown,almost completely remains within the thrombus
same,Blood,"[1]; blood sample of the animal, Cynomolgus monkey",90 cpm/mg and 130 cpm/mg and 100 cpm/mg
same,Clot/Blood mean (in vivo clot-to-blood ratio),"[1]; mean of 5 thrombi, sd 52",126+/−52 and 126
same,background in surrounding tissue or organ,"[1]; monkeys, PET",almost no background in any surrounding tissue or organ
same,accumulation in venous and arterial thrombi,"[1]; monkeys, PET, 15-25 MBq i.v.",surprisingly high accumulation
same,in vitro clot-to-blood ratio,[2]; 3 minutes post-injection of 18F-labeled compound,71 ± 4 (n = 3)
same,Accumulation Thrombus,"[2]; 3 minutes post-injection of 18F-labeled compound, without cold compound",202 ± 11 (n = 3) 10^3 cpm/mg
same,Thrombus competition,"[2]; cold compound added with hot compound, final plasma concentration 2.8 μM, 3 minutes",8 ± 1 (n = 3) 10^3 cpm/mg
same,blood clearance,"[3]; 25 MBq i.v., up to 60 minutes p.i.",rapidly cleared from the blood; also recorded: rapidly eliminated from the blood
same,contrast in the brain,[3]; PET,completely free of contrast
same,signal in other tissue,[3]; PET,only marginal signal visible in any other tissue
